For assay [1], the system named is Ppccd8 mutant plants. The assay can be described thus: Physcomitrium patens bioassay, number of filaments in the dark. Format: in vivo. The conditions noted are these: 1 μM; for Activity on filament number, one bioassay replication: Supplementary Figure 3. The procedure:
Assays on Physcomitrium patens were performed on plants grown in 24-well plates, starting from very small pieces of moss tissues as described by Guillory and Bonhomme ([2021]). As for pea rms1, the Ppccd8 SL synthesis mutant was used for assays, since the effect of the compounds was better seen in this mutant vs. wild type (WT; Lopez-Obando et al., [2021]). For each treatment, 24 plants were grown in PpNO3 medium [minimal medium described by Ashton et al., [1979]], dispatched in three different plates. Plants were grown for 2 weeks under control conditions, then treated with fluorophores or probes (all compounds used at 1 μM), before being placed vertically in the dark for 10 days. A single picture of each well was taken under an Axio Zoom microscope (Zeiss) with a dedicated program. Filaments were counted using ImageJ software (http://imagej.nih.gov/ij/) as described by Guillory and Bonhomme ([2021]). Twenty-four plants were tested in each treatment.

Assay [2] deals with rms1-10 pea mutant plants. Put plainly: Pea shoot-branching assay by direct application on the bud, rms1-10. The assay is classed as in vivo, Pisum sativum. The conditions noted are these: for Length of bud at node 3 /branch: direct application, rms1-10, 10 days after treatment; for Bioactivity on shoot branching inhibition (bud development): result in words. The procedure:
(§1) Pea (Pisum sativum) branching mutant plants used in this study were described previously (Rameau et al., [1997]). The SL biosynthesis rms1-10 (M3T-884) and SL response rms3-4 (M2T-30) mutants were obtained from the dwarf cv. Térèse. Plants were grown in a greenhouse under long days as described by Braun et al. ([2012]).
(§2) The compounds to be tested were applied directly to the axillary bud with a micropipette as 10 μL of a solution containing 0.1% of acetone with 2% of polyethylene glycol 1,450, 50% of ethanol, and 0.4% of DMSO. The control 0 is the treatment with 0.1% of DMSO without compound. A total of 24 plants were sown per treatment in trays (2 repetitions of 12 plants). The treatment was done 8 days after sowing, on the axillary bud at node 3. The branches at nodes 1–2 were removed to encourage the outgrowth of axillary buds at nodes above. Nodes were numbered acropetally from the first scale leaf as node 1 and cotyledonary node as node 0. Bud growth at node 3 was measured 10 days after treatment. Plants with damaged main shoot apex or showing a dead white treated bud were discarded from the analysis. The SL-deficient rms1-10 pea mutant was used for all experiments and WT Térèse as control. SL-perceived rms3-4 pea mutant was used to test that when bioactive, the analog acts via RMS3, and it was also used to check the putative toxicity of probes.

For assay [3], the target named is T1, RMS3 protein (Pisum sativum, UniProt A0A109QYD3).
T1 construct: GST; made in house
T1 sequence (A0A109QYD3 1-267): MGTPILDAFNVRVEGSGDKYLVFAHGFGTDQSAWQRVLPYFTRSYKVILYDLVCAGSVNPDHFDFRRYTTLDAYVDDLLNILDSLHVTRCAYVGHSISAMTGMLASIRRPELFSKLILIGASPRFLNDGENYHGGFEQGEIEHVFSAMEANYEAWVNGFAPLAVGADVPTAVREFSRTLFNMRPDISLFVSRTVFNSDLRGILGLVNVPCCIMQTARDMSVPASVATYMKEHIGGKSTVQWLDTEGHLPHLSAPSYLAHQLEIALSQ
The assay can be described thus: DSF binding assay on RMS3. Particulars: 10 µM RMS3, probe 0-400 µM.
Text: To search for a destabilization effect, which characterizes bioactive SL analogs with SL receptors, we performed DSF binding assay with our novel probes on RMS3 protein.
DSF assay with SL profluorescent probes. The melting temperature

Assay [4] concerns Arabidopsis SL-deficient mutant max3-11. The assay can be described thus: Hydroponic assay on Arabidopsis, rosette branches. Particulars: max3-11, hydroponic, 0.5 and 3 μM. The assay is classed as in vivo, Arabidopsis thaliana. How it is done: The hydroponic assay was adapted from the study by Cornet et al. ([2021]). Seeds were surface-sterilized for 8 min in a solution of ethanol (95%) and hypochlorite solution (10%; Bayrol, Mundolsheim, France) and were rinsed two times with ethanol (100%). Each seed was sown on top of a cut 0.5 ml Eppendorf tube filled with agar medium containing 0.65% of agar and 10% of nutritive solution of 5 mM NO3. Tubes were soaked in water and stored in the dark at 4°C for 2 days. Twelve plants per pipette tip box (13 × 9 × 7 cm) were grown and supplied with nutrient solution as in the study by Boyer et al. ([2014]) at a concentration of 5 ml/L (750 ml of solution per box). Every week, the nutrient solution was renewed and every 10 days one time, a fresh batch of treatment was added to the solution. The first treatment occurred at day 27 after sowing when plants started to bolt. The number of rosette branches was counted at day 42.

The subject of the next assay is rms3-4 pea mutant plants. The assay can be described thus: Pea shoot-branching assay by direct application on the bud, rms3-4. Format: in vivo, Pisum sativum. The conditions noted are these: 1,000 nM, rms3-4, 10 days after treatment. How it is done:
as §1, §2

The subject of a further assay is ShD14. Set-up: method as in Xu et al., 2018. Particulars: ref Xu et al., 2018; cited from earlier work.
Assay [5] concerns Ppccd8 mutant plants. Particulars: WT and Ppccd8; ref Hoffmann et al., 2014; Lopez-Obando et al., 2021; cited from earlier work.
Assay [6] addresses T1, RMS3 protein. Put plainly: Enzymatic assay with profluorescent probes, RMS3. Particulars: probe 10 μM, RMS3 400 nM, 25°C, result in words. The assay is classed as biochemical.
Assay [7] relates to rms1-10 pea mutant plants. Particulars: cited from earlier work; for Length of bud at node 3 /branch: direct application, rms1-10, tested previously, ref De saint Germain et al 2016.
A further assay has as its system pea. The assay can be described thus: Bioactivity of D14 inhibitors in pea. The conditions noted are these: in vivo.

Several values for one entry are separate records, joined by “and”; a condition that tells them apart may be missing. Identical values can stand only once. Counter-ions that a name gives are not always drawn. Like-named read-outs stand apart in the source and are kept apart here.

The source of these data is paper PMC9201908, “Expansion of the Strigolactone Profluorescent Probes Repertory: The Right Probe for the Right Application” (Frontiers in Plant Science, 2022).

Take `CC1=CC(Oc2ccc3ccc(=O)oc3c2)OC1=O` (racemic) [(±)-GC116]: in the assay on Ppccd8 mutant plants [1], the “Activity on filament number, one bioassay replication” value is “no significant bioactivity”. In addition, the “Length of bud at node 3 /branch” value is 11.47 mm in [2] (0.1 nM); 6.38 mm in assay [2] (1 nM); 2.47 mm and 2.26 mm and 5.20 mm and 4.34 mm and 3.85 mm in assay [2] (10 nM, mean per replicate); 2.66 mm and 2.29 mm and 2.46 mm and 1.96 mm and 1.72 mm in assay [2] (100 nM, mean per replicate); 1.67 mm and 3.13 mm and 1.60 mm and 2.22 mm and 1.97 mm and 2.21 mm in [2] (1,000 nM, mean per replicate); 2.43 mm in [2] (10,000 nM, mean per replicate). For the same compound, in [2] (rms1-10, direct application, 10 nM), the “Inhibition of bud development among probes with one methyl group on the D-ring” value was “strongest inhibition of bud development”. Moreover, in [2] (rms1-10, direct application), the “Bioactivity on shoot branching inhibition (bud development)” value is “inhibition of bud development”. In addition, on RMS3 protein [3], the “Destabilization of RMS3 (DSF)” value is on record as “able to destabilize RMS3”. In [4], the “Bioactivity on number of rosette branches” value is reported as “bioactive at 3 μM”.

Regarding `COc1cc2ccc(=O)oc2cc1OC1OC(=O)C(C)=C1C` (racemic) [(±)-GC380], the “Length of bud at node 3 /branch” value in assay [2] (10 nM, mean per replicate) is 6.65 mm; in assay [2] (100 nM, mean per replicate) it was 8.99 mm and 11.66 mm and 5.90 mm; in assay [2] (1,000 nM, mean per replicate) it was 2.33 mm and 3.47 mm and 2.08 mm; in [2] (10,000 nM, mean per replicate), 2.15 mm; in the assay on rms3-4 pea mutant plants, 23.62. In assay [2] (rms1-10, direct application), the “Bioactivity on shoot branching inhibition (bud development)” value was “bioactive for the three tested concentrations”.

Take `CC1=C[C@H](O/C=C2/C(=O)O[C@@H]3c4ccccc4C[C@H]23)OC1=O` (racemic) [(±)-GR24, reference compound]: the “Activity on filament number” value in the assay on Ppccd8 mutant plants [1] is listed as “confirmed the previous activity”. Further, the “Cleavage by ShD14” value in the assay on ShD14 is listed as “could cleave”. The “Effect on filament number” value with Ppccd8 mutant plants [5] is given as “decrease in filament number”. Besides, the “Bioactivity on number of rosette branches” value in assay [4] is given as “bioactive at both concentrations”.

Turning to `CC1=C(C)C(Oc2ccc3ccc(=O)oc3c2)OC1=O` (racemic) [(±)-GC155], the “Length of bud at node 3 /branch” value in [2] (10 nM, mean per replicate) was 5.97 mm and 16.85 mm and 8.43 mm; in assay [2] (100 nM, mean per replicate) it was 3.68 mm and 4.11 mm and 2.71 mm and 5.98 mm and 1.83 mm; in [2] (1,000 nM, mean per replicate), 1.98 mm and 1.45 mm and 1.92 mm and 1.96 mm and 2.38 mm and 2.32 mm; in [2] (10,000 nM, mean per replicate), 2.06 mm. Also, the “Bioactivity on shoot branching inhibition (bud development)” value in assay [2] (rms1-10, direct application) is “among the most bioactive molecules”. Further, at RMS3 protein [3], the “Destabilization of RMS3 (DSF)” value is “able to destabilize RMS3”. The “Cleavage kinetics by RMS3” value at RMS3 protein [6] is recorded as “two-phase kinetic”.

Regarding `CCOC(=O)c1ccccc1-c1c2ccc(=O)cc-2oc2cc(OC3C=CC(=O)O3)ccc12` (racemic) [(±)-dYLG, reference compound], in assay [7] (ref Yao et al., 2021), the “Biological activity on branching inhibition” value is “no biological activity”.

As for 7-Hydroxycoumarin [reference compound], in assay [2] (1,000 nM, mean per replicate), the “Length of bud at node 3 /branch” value turned out to be 41.46 mm.

In the case of `Cc1cc(=O)oc2c(F)c(O)c(F)cc12` [DiFMU, 6,8-difluoro-7-hydroxy-4-methyl-2H-chromen-2-one, reference compound], the “Length of bud at node 3 /branch” value in assay [2] (1,000 nM, mean per replicate) is recorded as 14.76 mm.

For `CC1=C(C)C(Oc2ccc3nc4ccc(=O)cc-4oc3c2)OC1=O` (racemic) [(±)-GC247, 7-[(3,4-Dimethyl-5-Oxo-2,5-Dihydrofuran-2-yl)Oxy]-3H-Phenoxazin-3-One], the “Length of bud at node 3 /branch” value in [2] (10 nM, mean per replicate) turned out to be 12.39 mm; in assay [2] (10,000 nM, mean per replicate) it was 6.54 mm. The “Bioactivity on shoot branching inhibition (bud development)” value in assay [2] (rms1-10, direct application) was “inhibitory effect with statistical significance only at 10 μM”. The “Cleavage kinetics by RMS3” value on RMS3 protein [6] is reported as “two-phase kinetic”.

In the case of `COc1cc2ccc(=O)oc2cc1OC1C=C(C)C(=O)O1` (racemic) [(±)-GC379], the “Length of bud at node 3 /branch” value in assay [2] (10 nM, mean per replicate) was 3.54 mm; in [2] (100 nM, mean per replicate) it was 2.81 mm and 5.02 mm and 3.98 mm and 14.32 mm; in assay [2] (1,000 nM, mean per replicate), 3.38 mm and 3.19 mm and 3.65 mm and 3.04 mm; in assay [2] (10,000 nM, mean per replicate), 2.17 mm; with rms3-4 pea mutant plants, 26.30. In assay [2] (rms1-10, direct application), the “Bioactivity on shoot branching inhibition (bud development)” value is reported as “bioactive for the three tested concentrations”. In addition, the “Destabilization of RMS3 (DSF)” value at RMS3 protein [3] is recorded as “able to destabilize RMS3”.

In the case of `O=C(N1CCc2ccccc21)n1ccnn1` [KK094], the Bioactivity in pea entry in the assay on pea is listed as “no bioactivity”.

For the compound `CC1=CC(OC=C2C(=O)OC3c4ccccc4CC23)OC1=O` (single isomer, unassigned; (+)) [(+)-GR24], the “Effect on filament number” value in the assay with Ppccd8 mutant plants [5] is reported as “decrease in filament number”.

For the compound `O=c1ccc2nc3ccc(O)cc3oc-2c1` [Resorufin, reference compound], the “Length of bud at node 3 /branch” value in assay [2] (10 nM, mean per replicate) was 12.53 mm; in assay [2] (100 nM, mean per replicate), 16.50 mm; in [2] (1,000 nM, mean per replicate) it was 14.90 mm.

Turning to `Cc1cc(=O)oc2c(F)c(OC3C=CC(=O)O3)c(F)cc12` (racemic) [(±)-GC486], the “Activity on filament number, one bioassay replication” value in the assay with Ppccd8 mutant plants [1] was “slight opposite effect”. Moreover, the “Length of bud at node 3 /branch” value in assay [2] (10 nM, mean per replicate) is listed as 24.70 mm; in [2] (100 nM, mean per replicate) it was 22.10 mm; in assay [2] (1,000 nM, mean per replicate) it was 23.14 mm; in assay [7] (1,000 nM), 9.26 mm; in assay [7] (5,000 nM) it was 17.41 mm. Moreover, the “Bioactivity on shoot branching inhibition (bud development)” value in [2] (rms1-10, direct application) is reported as “no biological activity”. On RMS3 protein [6], the “Cleavage kinetics by RMS3” value was “Michaelian kinetics”.

`Cc1c(Cl)cccc1Nc1ccccc1C(=O)O` [TFA, tolfenamic acid]: the Bioactivity in pea entry in the assay on pea is “no bioactivity”.

As for `CC(=O)Oc1ccc2ccc(=O)oc2c1` [CoumarinAc, 7-Acetoxycoumarin], the “Length of bud at node 3 /branch” value in assay [2] (10 nM, mean per replicate) is listed as 21.81 mm; in assay [2] (100 nM, mean per replicate), 22.67 mm; in assay [2] (1,000 nM, mean per replicate) it was 25.33 mm. For the same compound, in assay [2] (rms1-10, direct application), the “Bioactivity on shoot branching inhibition (bud development)” value is “no effect”. For the same compound, the “Cleavage kinetics by RMS3” value at RMS3 protein [6] is “slower velocity than DiFMUAc”.
